Two compounds from US20240376163A1, “PEPTIDE FOR INHIBITING CALCINEURIN AND USE THEREOF” (Seoul National University R&DB Foundation, priority 2023, published 2024) can be followed below.

Assay [1] concerns the target T1, CNAβ2 (Homo sapiens, UniProt P16298).
T1 construct: expressed in transfected cells; host or cells: HEK293T
Kind of assay: Mammalian two-hybrid assay (GAL4 DBD-peptides, VP16 AD-CNAβ2, pG5-luc) in HEK293T cells. The following applies: HEK293T. The assay is classed as cell-based. How it is done: (§1) To measure the transcriptional activity of NFAT, Jurkat T cells were cotransfected with GST-tagged peptides and NFAT-luc by electroporation. After 24 hours, the cells were pretreated with 0.5 μM FK506 for 1 hour and then treated with 40 nM PMA and 1 μM ionomycin for 8 hours. For mammalian two-hybrid assay, HEK293T cells were cotransfected with GAL4 DBD-tagged CABIN1, VIVIT, chimeric, and substituted peptides, VP16 activation domain-tagged CNAβ2, and pG5-luc (a luciferase reporter plasmid containing the GAL4 reaction promoter) for 24 hours. Harvested cells were lysed with luciferase assay lysis buffer (17 mM KH2PO4, 183 mM K2HPO4, pH 7.8, 0.2% [v/v] Triton X-100) and sonicated briefly. The luciferase activity against each cell lysate was measured using Infinite M200 (Tecan, Männedorf, and Switzerland). In addition, the expression level of the transfected protein was confirmed by Western blotting.

For assay [2], the system named is His6-tagged CNA. As to the kind of experiment: In vitro peptide competition assay. The assay is classed as binding. The settings on record: VIVIT 15-mer and CABIN1-L-1 peptide, molar ratio 1:50 to 1:400. How it is done:
In FIG. 4A, an in vitro peptide competition assay was performed using VIVIT 15-mer and CABIN1-L-1 peptide in a dose-dependent manner. The molar ratio of GST-tagged peptide to competing peptide ranged from 1:50 to 1:400. In FIG. 4B, a mammalian two-hybrid assay was performed using VP16 AD-CNAβ2 and GAL4 DBD-peptide in HEK293T cells treated or not-treated with 1 μM ionomycin. The pM empty vector was used as a negative control. In FIG. 4C, a calcineurin cellular activity assay was performed using Jurkat T cells expressing HA-mCherry-tagged peptides. Jurkat T cells expressing only HA-mCherry were used as negative controls, and cells treated with FK506 were used as positive controls. […] Purified GST was used as a negative control. All experiments were repeated three times, and data were expressed as mean±standard deviation. Statistical differences were determined using one-way analysis of variance. * p<0.05, NS: no statistical significance, NC: negative control.

Assay [3] relates to NFAT transcriptional activity. Kind of assay: NFAT luciferase reporter assay in Jurkat T cells expressing GST-tagged peptides. The assay is classed as cell-based. The following applies: PMA and ionomycin treatment. How it is done:
as §1
Background: In a reporter assay the amount or activity of a reporter protein is the signal.

Assay [4] deals with p38a (Homo sapiens, UniProt Q16539). As to the kind of experiment: In vitro kinase assay. The assay is classed as biochemical. The settings on record: purified GST-tagged peptide. How it is done:
(§2) Purified GST-tagged peptides were used for the in vitro kinase assay using activated recombinant kinase obtained from Proqinase GmbH (Freiburg, Germany). Kinase reactions were induced in reaction buffer (50 mM HEPES-NaOH, pH 7.5, 3 mM MgCl2, 3 mM MnCl2, 3 μM sodium orthobanadate, 1 mM dithiothreitol, 50 μM unlabeled ATP, 5 μCi 32P-γ-ATP) for 1 hour at 30° C. The reaction was stopped by the addition of 5× sample buffer, and proteins were isolated using SDS-PAGE. The gels were stained with Coomassie Brilliant Blue, dried, and developed on X-ray film.

Assay [5] has as its target T2, JNK1 (Homo sapiens, UniProt P45983).
T2 construct: purchased Proqinase GmbH (Freiburg, Germany)
As to the kind of experiment: In vitro kinase assay. The following applies: purified GST-tagged peptide. The assay is classed as biochemical. The method, then:
as §2

Assay [6] deals with T3, ERK2 (Homo sapiens, UniProt P28482).
T3 construct: purchased Proqinase GmbH (Freiburg, Germany)
As to the kind of experiment: In vitro kinase assay. The assay is classed as biochemical. The settings on record: purified GST-tagged peptide. How it is done:
as §2

Assay [7] concerns NFATC2. Kind of assay: NFAT mobility shifting assay in Jurkat T cells. The assay is classed as cell-based. The following applies: PMA and ionomycin. How it is done: In FIG. 2A, a luciferase reporter assay was performed to measure NFAT transcriptional activity. Jurkat T cells expressing GST-tagged peptides were treated with PMA and ionomycin for activation. Jurkat T cells expressing only GST were used as negative controls, and cells treated with 0.5 μM FK506 were used as positive controls (n=3). In FIG. 2B, an NFAT mobility shifting assay was performed using Jurkat T cells expressing HA-mCherry-tagged peptides. For dephosphorylation of NFATC2, Jurkat T cells were treated with PMA and ionomycin for 2 hours. In FIG. 2C, the hyperphosphorylated and hypophosphorylated NFATC2 of FIG. 2B was measured using ImageJ, and the hypo/hyper ratio was calculated (n=7). In FIG. 2D, snapshot images of the indicated peptides and activated Jurkat T cells expressing tNFATC2 were obtained using a confocal microscope. Expression and intracellular localization of peptides and tNFATC2 are indicated by mCherry (red) and EGFP (green), respectively. […] In FIG. 2E, tNFATC2 located in the nucleus was measured by calculating a ratio at which Hoechst (M1) and EGFP (M2) were present together. […] The data were repeated independently as many times as described and are expressed as means±standard deviation. Statistical differences were determined using two-sided Student's t-test (A, C) or one-way analysis of variance (E). *** p<0.001, NC: negative control. […]

Assay [8] relates to calcineurin. As to the kind of experiment: Calcineurin cellular activity assay in Jurkat T cells. The assay is classed as cell-based. The settings on record: Jurkat T cells expressing peptide or treated with FK506. The method, then:
Calcineurin phosphatase activity was measured in vitro using the Calcineurin phosphatase assay kit (BML-AK804, Enzo Life Sciences, Farmingdale, NY, USA). GST or GST-tagged peptides were cultured with CNA for 30 min at room temperature and then performed according to the manufacturer's instructions. Jurkat T cells were transiently transfected with CAG-HA-mCherry-peptide by electroporation endogenous calcineurin phosphatase activity. After 24 hours, the Jurkat T cells were pretreated with FK506 for 1 hour before activation with PMA and ionomycin. Thereafter, the cells were washed with TBS buffer (20 mM Tris, pH 7.2, 150 mM NaCl), resuspended with lysis buffer in a calcineurin cell activity assay kit (BML-AK816, Enzo Life Sciences), and stored on ice for 30 min. Lysate supernatants were collected by gel filtration using Desaltting Column Resin included in the kit, free phosphate was removed, and performed according to the manufacturer's instructions.

T1 sequence (P63098 2-170 partner limits assumed, other chains not shown): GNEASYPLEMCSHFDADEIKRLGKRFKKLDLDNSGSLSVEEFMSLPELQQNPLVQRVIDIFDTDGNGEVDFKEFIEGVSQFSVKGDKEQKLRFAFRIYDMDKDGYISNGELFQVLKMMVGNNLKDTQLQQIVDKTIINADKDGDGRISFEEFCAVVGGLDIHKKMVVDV
T2 sequence (P45983 whole entry): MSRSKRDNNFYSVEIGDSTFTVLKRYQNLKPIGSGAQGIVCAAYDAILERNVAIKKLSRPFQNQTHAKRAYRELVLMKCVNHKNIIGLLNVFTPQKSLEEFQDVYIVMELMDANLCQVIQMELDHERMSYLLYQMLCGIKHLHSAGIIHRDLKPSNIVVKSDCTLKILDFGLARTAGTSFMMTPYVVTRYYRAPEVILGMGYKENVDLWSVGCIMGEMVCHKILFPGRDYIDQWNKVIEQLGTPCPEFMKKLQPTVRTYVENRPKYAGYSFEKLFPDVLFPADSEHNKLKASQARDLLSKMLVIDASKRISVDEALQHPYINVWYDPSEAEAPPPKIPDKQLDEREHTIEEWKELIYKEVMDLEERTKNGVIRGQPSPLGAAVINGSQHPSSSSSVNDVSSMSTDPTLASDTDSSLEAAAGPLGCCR
p38a, sequence (Q16539 whole entry): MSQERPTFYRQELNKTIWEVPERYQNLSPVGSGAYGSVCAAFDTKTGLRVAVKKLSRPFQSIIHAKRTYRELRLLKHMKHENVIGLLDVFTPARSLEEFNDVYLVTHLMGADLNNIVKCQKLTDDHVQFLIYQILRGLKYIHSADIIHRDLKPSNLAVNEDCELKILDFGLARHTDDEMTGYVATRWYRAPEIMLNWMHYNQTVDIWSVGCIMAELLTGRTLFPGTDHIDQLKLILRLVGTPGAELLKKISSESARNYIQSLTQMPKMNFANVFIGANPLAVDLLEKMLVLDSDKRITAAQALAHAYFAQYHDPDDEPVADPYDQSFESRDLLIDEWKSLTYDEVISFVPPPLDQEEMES
T3 sequence (P28482 whole entry): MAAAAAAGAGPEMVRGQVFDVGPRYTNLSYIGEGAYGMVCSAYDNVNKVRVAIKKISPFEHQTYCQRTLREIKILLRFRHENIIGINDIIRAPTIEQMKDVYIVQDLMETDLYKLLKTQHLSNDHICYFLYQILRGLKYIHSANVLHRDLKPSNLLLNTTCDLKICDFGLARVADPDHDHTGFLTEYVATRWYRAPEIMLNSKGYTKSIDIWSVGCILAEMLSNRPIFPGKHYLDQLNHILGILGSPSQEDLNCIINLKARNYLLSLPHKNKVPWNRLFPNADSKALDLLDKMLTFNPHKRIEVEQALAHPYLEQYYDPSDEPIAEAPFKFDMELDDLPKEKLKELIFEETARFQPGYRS

Consider PEITVTPPTP [CABIN1-L-1-2], for which, in assay [1] (1 μM ionomycin), the “effect of ionomycin treatment on interaction with CNA” value is recorded as “did not affect the interaction”. Also, the “binding to CNA” value in assay [1] (GAL4 DBD-tagged peptides, VP16 activation domain-tagged CNA) is on record as “still bound to CNA”. Besides, in assay [2], the “competition for CNA binding” value was “dose-dependently interfered with the interaction between GST-tagged VIVIT peptide and His6-tagged CNA”. For the same compound, in assay [3], the “NFAT transcriptional activity (luciferase activity)” value is recorded as “inhibited luciferase activity compared to the negative control” and the “inhibitory effect on NFAT luciferase activity relative to VIVIT peptide” value is listed as “approximately 4 times”. In assay [4], the “phosphorylation by p38a” value was “phosphorylate”. Besides, the “phosphorylation by JNK1” value in assay [5] is given as “phosphorylate”. The “phosphorylation by ERK2” value in assay [6] is on record as “phosphorylate”. Further, the “NFATC2 band shift (dephosphorylation)” value in assay [7] is “significantly inhibited NFATC2 band shift”.
For the compound `C=CC[C@@H]1/C=C(\C)C[C@H](C)C[C@H](OC)[C@H]2O[C@@](O)(C(=O)C(=O)N3CCCC[C@H]3C(=O)O[C@H](/C(C)=C/[C@@H]3CC[C@@H](O)[C@H](OC)C3)[C@H](C)[C@@H](O)CC1=O)[C@H](C)C[C@@H]2OC` [FK506, Tacrolimus, reference compound], the “calcineurin phosphatase activity in cells” value in assay [8] was “reduced the phosphatase activity of CNA”. Further, in assay [7], the “NFATC2 band shift (dephosphorylation)” value is recorded as “significantly inhibited NFATC2 band shift”.
